# According to US12226379B2, “Highly sustainable compositions for modulation of gene expression in human skin, and methods of production thereof” (Visolis Technologies, Inc., priority 2022, dated 2025):
# How the values were obtained:
# Assay type in all cases: cell-based
# [1] = system: normal human epidermal keratinocytes cells; experiment: Cortisol production test (conversion of cortisone to cortisol, Alpha LISA); settings: FIG. 13
# Description: Impact of MVL on metabolism, specifically cortisol production, was conducted on keratinocytes. Generally, 11β-HSD1 (Hydroxysteroid Dehydrogenase Type 1) converts costisone to cortisol, which then induces stress response. Impact of MVL on conversion of cortisone to cortisol was evaluated. Cortisol production tests were conducted on normal human epidermal keratinocytes cells. […] Negative control samples contained PBS only. Cortisol production was subsequently measured via the Alpha LISA system.
# [2] = system: normal human epidermal keratinocytes (NHEKs) cells; experiment: Hyaluronic acid level in medium (ELISA, normalized to protein level); settings: FIG. 15; for increase in hyaluronic acid levels: 48 hours, p<0.05
# Description: Impact of MVL on hyaluronic acid, was conducted on keratinocytes. Hyaluronic acid is a crucial component of the skin. Impact of MVL on conversion of hyaluronic acid was evaluated. Hyaluronic acid tests were conducted on normal human epidermal keratinocytes (NHEKs) cells. Test samples contained 0-0.25% of highly sustainable, high-purity MVL by weight in a phosphate-buffered saline (PBS) solution. Negative control samples contained PBS only. Hyaluronic acid level in the medium was subsequently measured at 24 hours and 48 hours via ELISA and normalized to the protein level in the NHEK cells.
# [3] = system: EpiSkin-LM 3-dimensional in-vitro human skin model; experiment: Gene expression test (DNA microarray, mRNA) on the EpiSkin-LM reconstructed 3D skin model
# Description: Gene expression tests were conducted on EpiSkin-LM™, a commercially available 3-dimensional in-vitro human skin model composed of normal human skin cells in a collagen matrix. Test samples contained either 0.5% or 1.0% of highly sustainable, high-purity MVL by weight in a phosphate-buffered saline (PBS) solution. Negative control samples contained PBS only.
# Reconstructed 3D skin epidermal models (EpiSkin-LM™) were pre-incubated with 5 mL of maintenance medium for 24 hours per manufacturer instruction. 2 mL of the test samples or negative controls were applied on the top of the epidermis. The treated models were incubated for 24 hours. After incubation, the models were rinsed with PBS, then treated again with 2 mL test samples or the negative control and incubated an additional 24 hours.
# After the second incubation, mRNA was extracted from the models by miRNeasy® Mini Kit (QIAGEN). mRNA expression level in the model was measured by a Genopal® DNA microarray chip. Modulation of gene expression level was expressed as the ratio of mRNA transcripts in the test-sample treated models to mRNA transcripts in the negative control models. Positive numbers indicated an increase in gene expression, and negative numbers indicated a decrease in gene expression relative to the negative control.
# [4] = compositions containing 0.1 to 1.0 weight percent, human epithelial cells
compound,measurement,setting,value
"C[C@@]1(O)CCOC(=O)C1 [MVL, R-mevalonolactone]",conversion of cortisone to cortisol,"[1]; 0.125-0.5% by weight, higher concentrations give larger decline in cortisol levels",potently modulates
same,reduction of cortisol production,[1]; 0.5% concentration in PBS with cortisone,over 15%
same,increase in hyaluronic acid levels,[2]; 0.13% concentration,over 5%
same,hyaluronic acid levels,"[2]; 0.13-0.25% by weight, higher concentrations give higher hyaluronic acid levels",potently modulates
same,increase in hyaluronic acid levels,[2]; 0.25% concentration,over 5%
same,"decrease in gene expression level relative to negative control (MMP1, MMP2, MMP3, MMP7, MMP9, NFATC1, IL1A, IL1B, TNFA, SELE, SELL, EDN1, EDN2, EDN3, PTGS2 (COX2), POMC)","[3]; 1.0% by weight in PBS, two 24 h treatments, genes of extracellular matrix degradation, inflammation, skin pigmentation (FIGS. 6-8)",at least 10%
same,"decrease in expression of genes related to ECM degradation, inflammation and pigmentation",[3]; [4],at least 10%
same,"increase in expression of genes related to epithelial turnover, hyaluronic acid synthesis, barrier function and anti-aging elasticity",[3]; [4],at least 10%
